# Assay results taken from US20240307388A1, “FORMULATIONS FOR SUBSTITUTED 3-PYRROLIDINES, COMPOSITIONS CONTAINING, AND USES OF SAME” (LIPIDIO PHARMACEUTICALS, INC., priority 2016, published 2024).
# Legend:
# [1] = tested on: mouse 3T3 L1 preadipocytes; assay: Viability of mouse 3T3 L1 preadipocytes (Cell Titer Blue); assay type: cell-based; conditions: 10 μM
# Procedure: Viability of mouse 3T3 L1 preadipocytes (ATCC, Mannassas, VA) cultured in a 96-well plate following treatment with 10 μM Compound A and analogs Compounds B, D, E, G and H was assessed using Cell Titer Blue (Promega (Madison, WI)) according to manufacturer's instructions. […] To evaluate how the efficacy of Compound A in reducing lipid accumulation altered with substrate availability, studies were performed in differentiating mouse 3T3-L1 pre-adipocytes using charcoal stripped serum to reduce substrate concentration and also with added exogenous palmitate as the substrate. 3T3-L1 cells were plated at 6000 cells/cm^2 and cultured until confluence at 37° C. in a humidified incubator in 95% air/5% CO2. Two days post-confluence pre-adipocyte differentiation was initiated using adipocyte differentiation medium containing DMEM with high glucose, 10% fetal bovine serum, insulin (1.7 μM), dexamethasone (1 μM), IBMX (0.5 mM), PPARy agonist Rosiglitazone, (1 μM) with penicillin and streptomycin with 10 nM compound A or vehicle (0.1% DMSO). Seventy two hours following the initiation of differentiation, media was replaced with adipocyte maintenance media containing DMEM with high glucose and insulin (1.7 μM) with 10 nM compound A or vehicle (0.1% DMSO) (FIG. 12). Serum composed of 100% FCS or that containing 20, 40, 60, 80 or 100% charcoal stripped serum (cFCS). For experiments where sodium palmitate was added the serum comprised of a 90:10 ratio of FCS:cFCS with 5.0 or 50 μM palmitate/bovine-serum albumin (BSA) complex. Sodium palmitate was conjugated to BSA for use in experiments and was prepared by dissolving to 100 mM in 200 proof ethanol. The palmitate was diluted to 20 mM with D-PBS. The palmitate was then further diluted 1:1 with 30% fatty acid free albumin and incubated overnight at 37° C. The solution was sterile filtered with a 0.22 micron syringe filter prior to treating cells. The BSA control was prepared in the same manner, without the fatty acid. For the studies in which palmitate was added the media additionally contained palmitate/BSA complex at the same concentration as that used during the differentiation stage. Following a further forty-eight hours or ninety-six hours of incubation (Day 6 or Day 8 respectively) the media was removed, wells rinsed with PBS, and 200 μL PBS was added. Five microliters of AdipoRed™ reagent was added to each well, mixed, and allowed to stand at room temperature for 10 mins. Triglyceride was quantitated in a fluorimeter (i3 SpectraMax, Molecular Devices) using ? ex 530 nm and ? em 590 nm to determine relative fluorescent units (RFU). Percent inhibition of triglyceride accumulation in Compound A treated 3T3-L1 adipocytes compared to those treated with vehicle under each condition was calculated by using the formula; % Triglyceride Compound A treated adipocytes=100*(RFU Compound A treated adipocytes/RFU vehicle treated adipocytes).
# [2] = Analog solubility in TSAG3 gel vehicle (minus Carbopol); assay type: physicochemical; conditions: for Supernatant concentration Mean (N = 2-3) mg/g at RT after 4 days equilibration / Visual observation of sample after 4 days: TSAG3 gel vehicle minus 1% w/w Carbopol, 30 mg/g added, 20-23° C.
# Procedure: In order to assess the compatibility with the modified TSAG3 gel formulation, several analogs were saturated in the gel components at room temperature (20-23° C.). The method used was as follows: Each analog at the equivalent of 30 mg/g was added to 500 microliters of the gel vehicle (minus the 1% w/w Carbopol as this made the gel too viscous) and allowed to equilibrate using a gently rotating, rotisserie sample holder that was allowed to come to equilibrium over 4 days. The samples were visually observed, filtered and diluted for analysis via HPLC in a concentrations range predetermined to be in a linear range for analyte detection. It is believed that Carbopol makes little difference to the equilibrium solubility at the 1% w/w level but may possibly prevent precipitation of super−saturated solutions of drug initially over 24-48 hours which is a further reason for taking it out to better assess the drug solubility in the remainder of the formulation.
# [3] = tested on: Mouse melanoma cells (B16F10); assay: Cytotoxicity in mouse melanoma cells (CellTiter-Glo); assay type: cell-based; conditions: for effect of oleic acid on cytotoxicity: B16F10, oleic acid at 25 μM in the media
# Procedure: (§1) Mouse melanoma cells (B16F10) (American Type Culture Collection (ATCC), Manassas, VA) were cultured in Dulbecco's minimal essential media (DMEM) containing 10% fetal bovine serum, (Thermofisher, Waltham, MA). Cells were plated at a density of 5,000 cells per well into a 96-well plate and allowed to attach for 24 h in a 37° C. humidified incubator with a 5% CO2 atmosphere. Media was replaced with that containing test agents or vehicle (0.1% dimethylsulphoxide) and cells incubated for a further 48 h. Cell viability was assessed using CellTiter-Glo® (Promega).
# (§2) An oleate-bovine serum albumin (BSA) conjugate was prepared by dissolving sodium oleate to 100 mM in methanol. The oleate was diluted to 20 mM with PBS and further diluted 1:1 with 30% fatty acid free albumin and incubated overnight at 37° C. The solution was sterile filtered prior to treating cells. The BSA control was prepared in the same manner, without the fatty acid. […] Non-linear regression analysis was performed using GraphPad PRISM®.
# [4] = as above; assay type: cell-based; conditions: mouse, B16F10 mouse melanoma cells; B16F10, 48 h, representative experiment
# Procedure: as §1, §2
# [5] = tested on: HSC-1 human squamous carcinoma cells; assay: Cytotoxicity in human squamous carcinoma cells (CellTiter-Glo); assay type: cell-based; conditions: HSC-1, 72 h, 1% FBS, representative experiment, read-out: EC50 (cell viability)
# Procedure: The human skin squamous carcinoma line (HSC) (Japanese Collection of Research Bioresources Cell Bank (JCRB)) was cultured in Dulbecco's minimal essential media (DMEM) containing 20% fetal bovine serum (FBS), (Thermofisher, Waltham, MA). Cells were plated at a density of 5,000 cells per well into a 96-well plate and allowed to attach for 24 h in a 37° C. humidified incubator with a 5% CO2 atmosphere. Media was replaced with that containing test agents or vehicle (0.1% dimethylsulphoxide) in 1% FBS and cells incubated for a further 72 h. Cell viability was assessed using CellTiter-Glo® (Promega). Non-linear regression analysis was performed using GraphPad PRISM®.
# B16F10 cells = assay: Melanin production in B16F10 melanoma cells; assay type: cell-based, mouse; conditions: 10 nM, 48 h
# Procedure: B16F10 cells were plated at 150,000 cells per well into a 6-well plate and allowed to attach for 24 h in a 37° C. humidified incubator with a 5% CO2 atmosphere. Media was replaced with that containing test agents or vehicle (0.1% DMSO) and cells incubated for a further 48 h. Wells were washed once with PBS and cells removed by trypsinization and transferred to eppendorf tubes. Tubes were centrifuged at 1000 g for 10 minutes and the cell pellet resuspended in 0.5 mls PBS. Since compound A and analogs caused a reduction in cell viability the relative cell number per well was determined by taking an aliquot of the cell suspension in PBS and using CellTiter Glo® to determine the relative number of viable cells (Figure XX5). The PBS/cell suspension was centrifuged at 1000 g for 10 mins and the cell pellet resuspended in 1N NaOH/10% DMSO (v/v) and the tubes heated in a dry heating block at 80° C. with occasional vortexing to mix. In parallel a standard curve of melanin was prepared in 1N NaOH/10% DMSO using Sepia melanin (Sigma, St. Louis, MO) and standards also heated at 80° C. for 1 h. Samples and standards were centrifuged at 3000 g for 5 minutes and aliquots of the supernatant transferred to a 96-well plate for determination of melanin using Abs 475 nm. Melanin cellular content was interpolated from a standard curve and corrected based on the relative cell number in the sample.
# [6] = tested on: Human subcutaneous pre-adipocytes; assay: Lipid accumulation in differentiating primary human adipocytes (AdipoRed); assay type: cell-based; conditions: Adipocyte, 144 h, six days, read-out: IC50, reduction in lipid accumulation
# Procedure: Human subcutaneous pre-adipocytes (Zenbio (RTP, NC, U.S.A.)) were received pre-plated in white-walled 96-well plates. A schematic description of the protocol used for examining the effects of Compound A on lipid accumulation in differentiating human adipocytes is shown in FIG. 9. Upon arrival of cells (Day 1) 150 μL media in the wells was replaced with adipocyte differentiation media (Zenbio (RTP, NC, U.S.A.)). The following day media was replaced as described for Day 1. Media was subsequently replaced as described every two to three days. On Day 6, 150 μL of the adipocyte differentiation media was replaced with vehicle (0.1% DMSO), or the SCD1 inhibitors at the concentrations indicated. […] Cytotoxicity following incubation of adipocytes with Compound A was determined in separate wells, not used for Adipored™ staining, and was measured using CellTiter-Glo® (Promega (Madison, WI)) according to the manufacturer's instructions. Following a 10 min room temperature incubation the luminescence measured as relative light units (RLU) was determined in a luminescent plate reader. For adipocytes treated with concentrations of 1.2-100 nM Compound A for 6 days, cell viability as determined by RLU following CellTiter-Glo® remained greater than 75% of the value obtained with vehicle-treated adipocytes. […]
Structure (SMILES),cell viability compared to vehicle treated cells [1],Supernatant concentration Mean (N = 2-3) mg/g at RT after 4 days equilibration [2] [mg/g],Visual observation of sample after 4 days [2],"reduction of cell viability ([3]; B16F10, 48 h, up to 100 nM)",solubility as % of Compound A solubility ([2]; TSAG3 gel vehicle minus Carbopol),EC50 at 48 h [4] [nM],effect of oleic acid on cytotoxicity [3],EC50 [5] [nM],melanin content (B16F10 cells),IC50 [6] [nM]
O=C(COc1ccc(CO)cc1)N1CC[C@H](Oc2ccccc2)C1 [Compound B],No loss in cell viability,28.46,Clear solution,,,,,,,
O=C(COc1ccc(CO)cc1)N1CC[C@H](Oc2cccc(C(F)(F)F)c2)C1 [Compound D],No loss in cell viability,28.35,Clear solution,,,,,,,
O=C(COc1ccc(CO)cc1)N1CC[C@H](Oc2ccc(C(F)(F)F)cc2)C1 [Compound E],No loss in cell viability,23.18,Visible precipitate,did not reduce the viability,about 77%,,,,,
O=C(COc1ccc(CO)cc1)N1CC[C@H](Oc2ccccc2OC(F)(F)F)C1 [Compound G],No loss in cell viability,28.78,Clear solution,,,4.3,prevented the cytotoxic effect,9.2,increase in melanin,24.2
Cc1ccccc1O[C@H]1CCN(C(=O)COc2ccc(CO)cc2)C1 [Compound H],No loss in cell viability,27.89,Clear solution,,,46,prevented the cytotoxic effect,,,56
